From patent publication US20010034039A1, “Bioluminescent organism for detecting toxic substances” (priority 2000, published 2001)
Values after ≈ are worked out from the molar mass of the structure shown. Where two headings read alike, the source gives them in different places.

Assays:
[1] = tested on: YH9-RC deposited under KCTC 0730BP; assay: microbe, parasite or virus in culture; type: cell-based; conditions: Janthinobacterium lividum, read-out: EC50 (decrease luminescence by 50%)
Experimental: Toxicity tests for a variety of substances described in the following Table 2 were conducted using YH9-RC deposited under KCTC 0730BP obtained in the Example 1 to calculate EC50 (Effective concentration 50: the effective concentration of tested organism that decrease luminescence by 50%). It was compared with the EC50 value using oceanic luminescent bacterium (Vibrio sp. Isolate) that was most commonly used in a conventional toxicity test. First, the YH9-RC colony was cultured in an R2A broth containing 5 μg/ml of tetracycline (liquid culture medium containing Bacto yeast extract 0.5 wt %, Bacto proteose peptone No. 3 0.5 wt %, Bacto casamino acids 0.5 wt %, Bacto dextrose 0.5 wt %, soluble starch 0.5 wt %, sodium pyruvate 0.5 wt %, potassium phosphate dibasic 0.5 wt %, and magnesium sulfate 0.5 wt %) for 18 hours or more, and then it was sub-cultured in an R2A broth for another 7 to 8 hours, and the aliquot of the fresh culture was used in the toxicity test. In addition, 80 μl of the cell culture liquid, 80 μl of 0.03 wt % aldehyde aqueous solution, and 40 μl of a toxic sample diluted to various concentrations were mixed in a test tube of a luminometer, […]

[2] = tested on: oceanic luminescent bacterium (Vibrio sp. Isolate); assay: microbe, parasite or virus in culture; type: cell-based; conditions: read-out: EC50 (decrease luminescence by 50%)
YH-9 = conditions: YH9 strain
Text: Then, the YH9 was transformed, and luminescent genes were introduced therein.

SMILES: Cc1ccc(C)cc1 [p-xylene]
- EC50 ([1]; 5 min, YH9-RC, 5 minutes): 45.3 µg/mL (≈ 427 µM)
- EC50 ([1]; 10 min, YH9-RC, 10 minutes): 37.7 µg/mL (≈ 355 µM)
- EC50 ([1]; 0.25 h, YH9-RC, 15 minutes): 49.8 µg/mL (≈ 469 µM)
- EC50 ([2]; 5 min): 27.4 µg/mL (≈ 258 µM)
- EC50 ([2]; 10 min): 105 µg/mL (≈ 990 µM)
- EC50 ([2]; 0.25 h, 15 minutes): 63.1 µg/mL (≈ 594 µM)

SMILES: Oc1ccccc1 [Phenol]
- EC50 ([1]; 5 min): 26.5 µg/mL (≈ 282 µM)
- EC50 ([1]; 10 min): 12 µg/mL (≈ 128 µM)
- EC50 ([1]; 0.25 h): 12.7 µg/mL (≈ 135 µM)
- EC50 ([2]; 5 min): 116 µg/mL (≈ 1230 µM)
- EC50 ([2]; 10 min): 105 µg/mL (≈ 1120 µM)
- EC50 ([2]; 0.25 h): 63.1 µg/mL (≈ 670 µM)
- MIC for phenol among various Gram-negative isolates (YH-9): lowest MIC

SMILES: Cc1ccccc1 [Toluene]
- EC50 ([1]; 5 min, YH9-RC, 5 minutes): 5.61 µg/mL (≈ 60.9 µM)
- EC50 ([1]; 10 min, YH9-RC, 10 minutes): 5.65 µg/mL (≈ 61.3 µM)
- EC50 ([1]; 0.25 h, YH9-RC, 15 minutes): 6.3 µg/mL (≈ 68.4 µM)
- EC50 ([2]; 5 min): 87.1 µg/mL (≈ 945 µM)
- EC50 ([2]; 10 min): 120 µg/mL (≈ 1300 µM)
- EC50 ([2]; 0.25 h, 15 minutes): 142 µg/mL (≈ 1540 µM)

SMILES: c1ccccc1 [Benzene]
- EC50 ([1]; 5 min): 75.2 µg/mL (≈ 962 µM)
- EC50 ([1]; 10 min): 50.9 µg/mL (≈ 652 µM)
- EC50 ([1]; 0.25 h): 35.1 µg/mL (≈ 449 µM)
- EC50 ([2]; 5 min): 478 µg/mL (≈ 6120 µM)
- EC50 ([2]; 10 min): 607 µg/mL (≈ 7770 µM)
- EC50 ([2]; 0.25 h): 747 µg/mL (≈ 9570 µM)
